Consider 17 molecules from patent US6579705B2, “Process for preparing non-proteinogenic L-amino acids” (Consortium fur Elektrochemische Industrie GmbH, priority 2001, dated 2003).

The target of series [1] is T1, O-acetyl-L-serine sulfhydrylase CysM (Escherichia coli, UniProt P16703).
T1 construct: StrepTagII (WSHPQFEK) (C); made in house; host or cells: E. coli DH5alpha carrying pFL145 (tet promoter, pASK-IBA3)
The format is biochemical. The conditions noted are these: pH 7. On the procedure: (§1) In order to use the O-acetyl-L-serine sulfhydrylases to prepare non-proteinogenic amino acids, other nucleophilic compounds were used in the reaction in place of sulfide or thiosulfate. In order to detect them, a precolumn derivatization for amino acids was carried out using ortho-phthaldialdehyde. Using this method, it was possible to carry out a broad screening for suitable nucleophilic substrates.
(§2) The mixtures contained 4 mM O-acetyl-L-serine (added from a 200 mM stock solution in 500 mM Nasuccinate buffer, pH 5.5), 20 mM nucleophilic compound, 100 mM K phosphate buffer, pH 7.0, and 5 μg of purified enzyme/ml. The reaction was stopped with 1/100th the volume of acetic acid (96% v/v) and analyzed by HPLC using a HP aminoquant column (200 mm×2.1 mm) in accordance with the manufacturer's instructions supplied by Hewlett Packard, Waldbronn, Germany.

The target in series [2] is T2, O-acetyl-L-serine sulfhydrylase CysK (Escherichia coli, UniProt P0ABK5).
T2 construct: StrepTagII (WSHPQFEK) (C); made in house; host or cells: E. coli BLR21(DE3) carrying pLE4 (T7 promoter, pRSET5a)
T2 sequence (P0ABK5 whole entry, looked up): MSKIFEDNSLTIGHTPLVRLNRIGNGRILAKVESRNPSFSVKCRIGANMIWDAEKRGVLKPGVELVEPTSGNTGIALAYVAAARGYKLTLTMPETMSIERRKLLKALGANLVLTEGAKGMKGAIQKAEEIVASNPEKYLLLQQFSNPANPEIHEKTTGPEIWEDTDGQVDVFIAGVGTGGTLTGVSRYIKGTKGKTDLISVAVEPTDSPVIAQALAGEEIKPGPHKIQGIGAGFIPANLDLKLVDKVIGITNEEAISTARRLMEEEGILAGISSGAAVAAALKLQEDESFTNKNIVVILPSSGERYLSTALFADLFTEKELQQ
The format is biochemical. The note with it: pH 7. On the procedure: as §1, §2

The format of series [3] is biochemical, Escherichia coli. The conditions noted are these: 10 mM O-acetyl-serine, pH 7.0, 37° C., 5 μg purified enzyme/ml; for specific activity Acys (formation of cysteine using sulfide): 10 mM sodium sulfide. On the procedure:
The activity of O-acetyl-L-serine sulfhydrylases is measured by detecting the “natural” reaction product L-cysteine (Cys) or alternatively, in the case of CysM, also by detecting the reaction product as S-sulfo-L-cysteine (S-Cys). Both products can be detected very specifically and very sensitively using the test described by Gaitonde (1967, Biochem. J. 104: 627-633).
A typical test mixture contained 10 mM O-acetyl-serine (added from a 200 mM stock solution in 500 mM sodium succinate buffer, pH 5.5), 10 mM sodium sulfide or sodium thiosulfate, 100 mM potassium phosphate buffer, pH 7.0, and 5 μg of purified enzyme/ml, and is incubated at 37° C. The specific activity, A, is given in units/mg of protein, i.e. in μmol of product×min^−1×mg^−1 of protein. Acys denotes the specific activity of the formation of cysteine using sulfide. AS-Cys denotes the specific activity of the formation of S-sulfocysteine using thiosulfate. The specific activities using the proteins isolated in example 2 were: […]

Turning to `c1nc[nH]n1` [1,2,4-Triazole], the CysM conversion entry in series [1] is reported as “++ (key: +++: conversion greater than 70% after 30 min; ++: conversion greater than 40% after 30 min; +: conversion greater than 10% after 30 min; −: conversion less than 5% after 30 min)”. In series [2], the CysK conversion result is on record as “+++ (key: +++: conversion greater than 70% after 30 min; ++: conversion greater than 40% after 30 min; +: conversion greater than 10% after 30 min; −: conversion less than 5% after 30 min)”.
Take `c1nn[nH]n1` [1,2,3,4-Tetrazole]: the CysM conversion result in series [1] is “++ (key: +++: conversion greater than 70% after 30 min; ++: conversion greater than 40% after 30 min; +: conversion greater than 10% after 30 min; −: conversion less than 5% after 30 min)”. In series [2], the CysK conversion result was “+++ (key: +++: conversion greater than 70% after 30 min; ++: conversion greater than 40% after 30 min; +: conversion greater than 10% after 30 min; −: conversion less than 5% after 30 min)”.
For the molecule `O=C(O)c1ccc2[nH]nnc2c1` [5-Carboxy-1,2,3-benzotriazole], the CysM conversion entry in series [1] is “+ (key: +++: conversion greater than 70% after 30 min; ++: conversion greater than 40% after 30 min; +: conversion greater than 10% after 30 min; −: conversion less than 5% after 30 min)”. The CysK conversion result in series [2] is given as “++ (key: +++: conversion greater than 70% after 30 min; ++: conversion greater than 40% after 30 min; +: conversion greater than 10% after 30 min; −: conversion less than 5% after 30 min)”.
Turning to `O=c1[nH]oc(=O)[nH]1` [1,2,4-Oxadiazolidine-3,5-dione], in series [1], the CysM conversion entry is recorded as “+ (key: +++: conversion greater than 70% after 30 min; ++: conversion greater than 40% after 30 min; +: conversion greater than 10% after 30 min; −: conversion less than 5% after 30 min)”. Further, the CysK conversion entry in series [2] was “− (key: +++: conversion greater than 70% after 30 min; ++: conversion greater than 40% after 30 min; +: conversion greater than 10% after 30 min; −: conversion less than 5% after 30 min)”.
For the molecule `Nc1nc2nn[nH]c2c(=O)[nH]1` [8-Azaguanine], the CysM conversion result in series [1] is listed as “+ (key: +++: conversion greater than 70% after 30 min; ++: conversion greater than 40% after 30 min; +: conversion greater than 10% after 30 min; −: conversion less than 5% after 30 min)”. Also, in series [2], the CysK conversion result is reported as “− (key: +++: conversion greater than 70% after 30 min; ++: conversion greater than 40% after 30 min; +: conversion greater than 10% after 30 min; −: conversion less than 5% after 30 min)”.
As to `[SeH2]` [Sodium selenide], the CysM conversion entry in series [1] was “+++ (key: +++: conversion greater than 70% after 30 min; ++: conversion greater than 40% after 30 min; +: conversion greater than 10% after 30 min; −: conversion less than 5% after 30 min)”. In addition, the CysK conversion entry in series [2] is on record as “+++ (key: +++: conversion greater than 70% after 30 min; ++: conversion greater than 40% after 30 min; +: conversion greater than 10% after 30 min; −: conversion less than 5% after 30 min)”.
For `[N-]=[N+]=[N-].[Na+]` [Sodium azide], the CysM conversion entry in series [1] is “+++ (key: +++: conversion greater than 70% after 30 min; ++: conversion greater than 40% after 30 min; +: conversion greater than 10% after 30 min; −: conversion less than 5% after 30 min)”. For the same molecule, in series [2], the CysK conversion entry is “+++ (key: +++: conversion greater than 70% after 30 min; ++: conversion greater than 40% after 30 min; +: conversion greater than 10% after 30 min; −: conversion less than 5% after 30 min)”.
On to 1,2-Pyrazole, for which the CysM conversion entry in series [1] was “++ (key: +++: conversion greater than 70% after 30 min; ++: conversion greater than 40% after 30 min; +: conversion greater than 10% after 30 min; −: conversion less than 5% after 30 min)”. Further, the CysK conversion result in series [2] was “++ (key: +++: conversion greater than 70% after 30 min; ++: conversion greater than 40% after 30 min; +: conversion greater than 10% after 30 min; −: conversion less than 5% after 30 min)”.
Consider `OCCS` [Mercaptoethanol], for which the CysM conversion entry in series [1] is given as “+++ (key: +++: conversion greater than 70% after 30 min; ++: conversion greater than 40% after 30 min; +: conversion greater than 10% after 30 min; −: conversion less than 5% after 30 min)”. In addition, the CysK conversion result in series [2] is reported as “+++ (key: +++: conversion greater than 70% after 30 min; ++: conversion greater than 40% after 30 min; +: conversion greater than 10% after 30 min; −: conversion less than 5% after 30 min)”.
Regarding `Sc1nccs1` [2-Mercaptothiazole], in series [1], the CysM conversion result was “+++ (key: +++: conversion greater than 70% after 30 min; ++: conversion greater than 40% after 30 min; +: conversion greater than 10% after 30 min; −: conversion less than 5% after 30 min)”. Moreover, the CysK conversion result in series [2] is reported as “++ (key: +++: conversion greater than 70% after 30 min; ++: conversion greater than 40% after 30 min; +: conversion greater than 10% after 30 min; −: conversion less than 5% after 30 min)”.
Consider `[SeH]c1ccccc1` [Phenylselenol], for which the CysM conversion entry in series [1] was “+++ (key: +++: conversion greater than 70% after 30 min; ++: conversion greater than 40% after 30 min; +: conversion greater than 10% after 30 min; −: conversion less than 5% after 30 min)”. Besides, the CysK conversion entry in series [2] is given as “++ (key: +++: conversion greater than 70% after 30 min; ++: conversion greater than 40% after 30 min; +: conversion greater than 10% after 30 min; −: conversion less than 5% after 30 min)”.
With `O[C@@H](CS)[C@@H](O)CS` (racemic) [Dithiothreithol], the CysM conversion result in series [1] is “+++ (key: +++: conversion greater than 70% after 30 min; ++: conversion greater than 40% after 30 min; +: conversion greater than 10% after 30 min; −: conversion less than 5% after 30 min)”. Besides, the CysK conversion entry in series [2] is reported as “+++ (key: +++: conversion greater than 70% after 30 min; ++: conversion greater than 40% after 30 min; +: conversion greater than 10% after 30 min; −: conversion less than 5% after 30 min)”.
Regarding `Sc1nc[nH]n1` [3 Mercapto-1,2,4-triazole], the CysM conversion result in series [1] is on record as “+++ (key: +++: conversion greater than 70% after 30 min; ++: conversion greater than 40% after 30 min; +: conversion greater than 10% after 30 min; −: conversion less than 5% after 30 min)”. Also, in series [2], the CysK conversion result is “+ (key: +++: conversion greater than 70% after 30 min; ++: conversion greater than 40% after 30 min; +: conversion greater than 10% after 30 min; −: conversion less than 5% after 30 min)”.
On to `c1ccc2[nH]nnc2c1` [1,2,3-Benzotriazole], for which, in series [1], the CysM conversion entry was “+ (key: +++: conversion greater than 70% after 30 min; ++: conversion greater than 40% after 30 min; +: conversion greater than 10% after 30 min; −: conversion less than 5% after 30 min)”. Besides, the CysK conversion entry in series [2] was “++ (key: +++: conversion greater than 70% after 30 min; ++: conversion greater than 40% after 30 min; +: conversion greater than 10% after 30 min; −: conversion less than 5% after 30 min)”.
On to `Sc1ccccc1` [Thiophenol], for which the CysM conversion result in series [1] is reported as “+++ (key: +++: conversion greater than 70% after 30 min; ++: conversion greater than 40% after 30 min; +: conversion greater than 10% after 30 min; −: conversion less than 5% after 30 min)”. Further, the CysK conversion entry in series [2] was “++ (key: +++: conversion greater than 70% after 30 min; ++: conversion greater than 40% after 30 min; +: conversion greater than 10% after 30 min; −: conversion less than 5% after 30 min)”.

B1: CysK: Escherichia coli O-acetyl-L-serine sulfhydrylase with C-terminal StrepTagII, purified by affinity chromatography (protein, UniProt P0ABK5 2-323, looked up)
Cysteine synthase A: SKIFEDNSLTIGHTPLVRLNRIGNGRILAKVESRNPSFSVKCRIGANMIWDAEKRGVLKPGVELVEPTSGNTGIALAYVAAARGYKLTLTMPETMSIERRKLLKALGANLVLTEGAKGMKGAIQKAEEIVASNPEKYLLLQQFSNPANPEIHEKTTGPEIWEDTDGQVDVFIAGVGTGGTLTGVSRYIKGTKGKTDLISVAVEPTDSPVIAQALAGEEIKPGPHKIQGIGAGFIPANLDLKLVDKVIGITNEEAISTARRLMEEEGILAGISSGAAVAAALKLQEDESFTNKNIVVILPSSGERYLSTALFADLFTEKELQQ
Regarding B1, the “specific activity Acys (formation of cysteine using sulfide)” value in series [3] is given as 140 units/mg.

B2: CysM: Escherichia coli O-acetyl-L-serine sulfhydrylase with C-terminal StrepTagII, purified by affinity chromatography (protein, UniProt P16703 1-303, looked up)
Cysteine synthase B: MSTLEQTIGNTPLVKLQRMGPDNGSEVWLKLEGNNPAGSVKDRAALSMIVEAEKRGEIKPGDVLIEATSGNTGIALAMIAALKGYRMKLLMPDNMSQERRAAMRAYGAELILVTKEQGMEGARDLALEMANRGEGKLLDQFNNPDNPYAHYTTTGPEIWQQTGGRITHFVSSMGTTGTITGVSRFMREQSKPVTIVGLQPEEGSSIPGIRRWPTEYLPGIFNASLVDEVLDIHQRDAENTMRELAVREGIFCGVSSGGAVAGALRVAKANPDAVVVAIICDRGDRYLSTGVFGEEHFSQGAGI
As for B2, the “specific activity Acys (formation of cysteine using sulfide)” value in series [3] worked out at 199 units/mg. Besides, in series [3] (10 mM sodium thiosulfate), the “specific activity AS-cys (formation of S-sulfocysteine using thiosulfate)” value turned out to be 145 units/mg.
